“And” between values parts separate entries of the source, which are not always exact repeats. Equal values may be shown once.
Legend:
[1] = molecular target: T1, soluble epoxide hydrolase (sEH) (Homo sapiens, UniProt P34913); assay: sEH enzyme kinetic study (Lineweaver-Burk and Dixon plots); format: biochemical; conditions: for Ki: Dixon plots, read-out: ki (inhibition constant); for Binding Mode: Lineweaver-Burk plots
T1 construct: purchased Cayman (Ann Arbor, MI, USA) 10011669
T1 sequence (P34913 1-555): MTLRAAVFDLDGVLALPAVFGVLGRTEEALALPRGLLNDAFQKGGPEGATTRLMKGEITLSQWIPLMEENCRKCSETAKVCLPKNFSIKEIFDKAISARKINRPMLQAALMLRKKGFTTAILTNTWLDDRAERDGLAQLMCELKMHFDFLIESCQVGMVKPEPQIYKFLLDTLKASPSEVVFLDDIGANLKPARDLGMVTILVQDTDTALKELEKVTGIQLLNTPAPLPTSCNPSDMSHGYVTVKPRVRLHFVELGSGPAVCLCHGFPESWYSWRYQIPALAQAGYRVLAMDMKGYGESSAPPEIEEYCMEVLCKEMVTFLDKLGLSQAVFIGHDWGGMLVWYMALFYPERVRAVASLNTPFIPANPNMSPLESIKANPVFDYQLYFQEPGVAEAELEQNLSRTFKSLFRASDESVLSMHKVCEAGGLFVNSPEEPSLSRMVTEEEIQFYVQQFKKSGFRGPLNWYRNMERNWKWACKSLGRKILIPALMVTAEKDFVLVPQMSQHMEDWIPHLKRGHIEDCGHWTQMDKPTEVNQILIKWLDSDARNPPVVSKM
Protocol: The enzyme kinetic study was performed to find the binding position of the inhibitor into sEH. The initial velocity (v0) for the three different concentrations of inhibitors was calculated relative to the substrate concentrations (1.1, 1.5, 2.2, 3.1, 6.2, and 12.5 μM). The inverse of these concentrations and v0 values were used to construct Lineweaver-Burk plots.
As presented in Figure 2F–I and Table 1, the inhibition constant (ki) values were calculated by Dixon plots. Inhibitors 1–4 were calculated to be ki values ranging from 2.9 ± 0.8 μM to […]. Among them, inhibitor 4 had the strongest ki value of 2.9 ± 0.8 μM.
(§1) The assays were carried out at 37 °C in 0.025-M bis-tris-HCL buffer, pH 7.0, containing 0.1% Bovine Serum Albumin B. PHOME (~2.6 μM) was used as a substrate. The final volume of tests was […] in ~10 ng/mL sEH. The products were monitored at 330 nm of excitation and 465 nm emission for 40 min.

[2] = molecular target: T1, soluble epoxide hydrolase (sEH); assay: sEH assay (PHOME substrate, fluorescence); format: biochemical; conditions: triplicated experiments; 37 °C, pH 7.0, PHOME substrate; read-out: IC50 Value, inhibitory activity on sEH
Protocol: The inhibitory activity of each concentration of compound was calculated based on the difference in enzyme products with and without the presence of the compound using Equation (1). […] To calculate the half-maximal inhibitory concentration of the inhibitors (IC50), inhibition rate values were fitted using Equation (2).
as §1
The inhibition rate was calculated according to the following equations:Inhibition effect rate (%) = [(ΔC − ΔS)/ΔC] × 100(1) where ΔC and ΔS represent the gap of control and inhibitor during reaction, respectively. y = y0 + [(a × x)/(b + x)](2) where “y0” is the point on the axis of ordinates, “a” denotes the difference between the maximum and minimum values, and “b” refers to the “x” value at 50%.

[3] = design: method as in PMID 19794443; conditions: cited from earlier work

## C[C@H]1[C@H](C)CC[C@]2(C(=O)O)CC[C@]3(C)C(=CC[C@@H]4[C@@]5(C)C[C@@H](O)[C@H](O)C(C)(C)[C@@H]5CC[C@]43C)[C@H]12 [Compound 3, corosolic acid]
[1]
  Ki: 34.6 µM
  Binding Mode: Noncompetitive
[2]
  IC50: 51.3 ± 4.9 µM

## O=C(O)CCCCCCCCCCCNC(=O)NC12CC3CC(CC(C3)C1)C2 [AUDA, 12-(3-adamantan-1-yl-ureido)dodecanoic acid]
[3]
  solubility: low solubility

## O=c1c(OC2O[C@H](CO)[C@@H](O)[C@@H]2O)c(-c2ccc(O)c(O)c2)oc2cc(O)cc(O)c12 (stereo in doubt) [Compound 1, quercetin 3-O-arabinofuranoside]
[1]
  Ki: 39.5 µM
  Binding Mode: Mixed
[2]
  IC50: < 50 µM and 39.3 µM

## C[C@@H]1CC[C@]2(C(=O)O)CC[C@]3(C)C(=CC[C@@H]4[C@@]5(C)CC(=O)[C@H](O)C(C)(C)[C@@H]5CC[C@]43C)[C@@H]2[C@]1(C)O [Compound 4, 2-oxopomolic acid]
[1]
  Ki: 2.9 µM
  Binding Mode: Noncompetitive
[2]
  IC50: < 50 µM and 11.4 µM

## C[C@H]1[C@H](C)CC[C@]2(C(=O)O)CC[C@]3(C)C(=CC[C@@H]4[C@@]5(C)CC[C@H](O)C(C)(C)[C@@H]5CC[C@]43C)[C@H]12 [Compound 2, ursolic acid]
[1]
  Ki: 38.5 µM
  Binding Mode: Noncompetitive
[2]
  IC50: 84.5 ± 9.5 µM

— article PMC7576482, “Inhibitory Activity of Quercetin 3-O-Arabinofuranoside and 2-Oxopomolic Acid Derived from Malus domestica on Soluble Epoxide Hydrolase” (Molecules, 2020)
